Legend:
human islets [1] = test: Extracellular ROS in culture media, Acridan Lumigen PS-3 assay; format: cell-based; settings: media 24 hr after tacrolimus exposure, ± AAGP
Experimental: Frozen samples from all groups are utilized to determine reactive oxygen species (ROS) in the culture media, using the Acridan Lumigen™ PS-3 assay (Amershan ECL Plus kit, Fisher Scientific Inc. Ottawa, ON, Canada) (18). In this assay Acridan Lumigen™ PS-3 is excited by reactive oxygen and nitrogen species (RNS) in the presence of hydrogen peroxide, producing chemiluminescense at 430 nm. Media samples are flash-frozen with liquid nitrogen and stored until the assay is performed. CMRL culture media alone is used as a control, and results are expressed as fold-change increase compared to the control media.

mouse splenocytes = test: Allogeneic mixed lymphocyte reaction, T cell proliferation by CFSE staining; format: cell-based; settings: vs IgG control, n=4
Description: The assay measures T cell proliferative response by levels of CFSE staining.

human islets [2] = test: Capacitance measurement as indicator of exocytosis upon high glucose stimulation; format: cell-based
Experimental: Complementary capacitance studies were performed with these same conditions as an indirect indicator of exocytosis upon high glucose stimulation.

[3] = test system: human islets transplanted under the kidney capsule; test: Proinflammatory cytokines and chemokines in homogenized graft 24 h post-transplant; format: in vivo, immunodeficient mice; settings: 24 h after transplant, 1,000 IEQ, islets cultured with tacrolimus ± AAGP, n=3
Experimental: After 24 hr exposure to tacrolimus, samples from culture media of all groups are frozen and relevant cytokines and chemokines (IFN-γ, IL-1β, IL-6, IL-10, IL-12, Keratinocyte-derived Chemokine (KC), and TNF-α) are measured using a Multi-Spot Human ProInflammatory 7-Plex Ultra-Sensitive kit (Meso Scale Discovery®, Gaithersburg, MD, USA), analyzed on the SECTOR™ Imager (Meso Scale Discovery®, Gaithersburg, MD, USA). Results are expressed as absolute values (pg/mL), and CMRL culture media alone is used as a control for comparison.
Eight to 12 week immunodeficient mice (B6.129S7-Rag1^tm1Mom) are obtained from the Jackson Laboratory (Bar Harbor, ME, USA) and housed under specific pathogen-free conditions with access to food and water ad libitum. Animals are cared for according to the guidelines of the Canadian Council on Animal Care, and ethical approval is obtained from the animal welfare committee at the University of Alberta.
Animals are considered diabetic after two consecutive blood glucose measurements are documented≥18 mmol/L.
Ten animals per group received approximately 1,000 IEQ human islets transplanted under the capsule of the left kidney as described previously (19).
Three mice per group underwent nephrectomy and are euthanized 24 hr post-transplant to perform acute determination of proinflammatory cytokines, cleaved capase-3 and TUNEL in the graft area. In all cases the islet graft is excised from the kidney, weighed, flash frozen in liquid nitrogen and stored at −80° C. Tissue samples are subsequently lysed using 1 ml of lysis buffer (0.15 M NaCl, 1 mM Tris-HCL, 0.1% SDS, 0.1% Triton X-100, 20 mM Sodium deoxycholate, 5 mM EDTA) per 200 mg of tissue. Lysates are then homogenized (PowerGen, Fisher Scientific, ON, Canada) on ice for 30 sec×2 replications, and sonicated (VirSonic, VirTis, NY, USA) with 10 quick pulses while on ice. Cellular debris is pelleted by centrifugation at 14,000 rpm for 10 min at 4° C. and the resulting supernatant is collected and placed in a microcentrifuge tube containing 10 μl of a protease inhibitor cocktail (Sigma-Aldrich Canada Co., Oakville, ON, Canada) per 1 ml of lysate (1:100).
Graft samples are assayed (using the corresponding mouse kit) for pro-inflammatory cytokines/chemokines, caspase-3 and TUNEL staining, as previously described. All determinations are adjusted per gram of tissue.
Further in vivo testing is performed to complement our in vitro findings. Using the same study groups (Tac−, Tac+ and Tac+AAGP™) minimal mass (1,000 IEQ) islet transplants are performed in chemically-induced diabetic immunodeficient mice (n=10 per group). […]

[4] = test system: human islets transplanted under the kidney capsule; test: Intra-graft apoptosis 24 h post-transplant (cleaved caspase-3, TUNEL); format: in vivo, immunodeficient mice; settings: graft 24 h after transplant
Experimental: Apoptosis is measured in all groups using a cleaved caspase-3 spectrophotometric assay and Terminal deoxynucleotidyl transferase dUTP nick end labeling (TUNEL) staining. All determinations are made on normalized groups of 100 IEQ and their corresponding culture media.
Frozen media samples are used to determine cleaved caspase-3 increase using a spectrophotometric assay (EMD Millipore™. Billerica, MA, USA). Again, CMRL culture media alone with additives and no cells is used as a control, and results are expressed as fold-change increase compared to the control media.
For TUNEL staining (DeadEnd™ Apoptosis Detection System, Promega, Madison, WI), islets are fixed in formalin, processed and embedded in paraffin. Co-staining is performed to identify the graft (insulin), apoptotic cells and all nuclei present in the field. Apoptosis is quantified by percentage of positive TUNEL stained area using imageJ software.
Three mice per group underwent nephrectomy and are euthanized 24 hr post-transplant to perform acute determination of proinflammatory cytokines, cleaved capase-3 and TUNEL in the graft area. In all cases the islet graft is excised from the kidney, weighed, flash frozen in liquid nitrogen and stored at −80° C. […]

[5] = test system: syngeneic islet transplant; test: Syngeneic full mass islet transplant with continuous tacrolimus treatment; format: in vivo, mouse
Description: FIG. 11 illustrates the post-transplant graft function in immunodefficient mice receiving minimal human islet mass (˜1000 IEQ). Islets were previously treated with AAGP™ and tracrolimus accordingly. […] The dotted line indicates graft recovery nephrectomy on day 60. B. Intraperitoneal glucose tolerance test (IPGTT) to evaluate metabolic response after receiving a glucose bolus. C. Insulin content of removed grafts after 60 days of transplant as an indication of residual islet mass. Data points represent mean±SEM adjusted per gram of tissue, (Tac− n=6, Tac+ n=3 and Tac+AAGP™ n=7), *p<0.05, **p<0.01 and ***p<0.001. D and E. Post-transplant graft function in mice receiving syngeneic full mass (˜500 IEQ) islet transplant. AAGP™ was added to the culture media 1 hour prior to transplant and tacrolimus was administered via a subcutaneous osmotic pump (implanted during the same procedure) at a continuous rate of 1 mg/kg/day. D. Pooled blood glucose profiles of animal over 40 days with clear dysfunction for Tac+ islets during the presence of Tac. Vertical dotted line indicates tacrolimus treatment cessation and marks a gradual recovery of Tac+ grafts. Horizontal continuous line at y=11 indicates the normoglycemia limit. Graft recovery nephrectomy was again performed on day 30. E. Mean time-to-euglycemia after transplant showing Tac+AAGP™ mice reversing diabetes earlier (p<0.001, log-rank, Mantel-cox test). […] These differences were not observed in the Tac+AAGP™ group.
To further support these findings a transplant experiment was performed in a syngeneic diabetic mouse transplant model with continuous treatment with tacrolimus to resemble clinical practice.
To make our experiments more clinically relevant, a new in vivo syngeneic mouse transplant model was performed, with tacrolimus as a continuous treatment by means of a subcutaneous osmotic pump. It was observed that the functional impairment of transplanted islets occurred immediately after starting administration of the CNI and lasted during the entire treatment period (7 days).

SMILES: C=CC[C@@H]1/C=C(\C)C[C@H](C)C[C@H](OC)[C@H]2O[C@@](O)(C(=O)C(=O)N3CCCC[C@H]3C(=O)O[C@H](/C(C)=C/[C@@H]3CC[C@@H](O)[C@H](OC)C3)[C@H](C)[C@@H](O)CC1=O)[C@H](C)C[C@@H]2OC.O [Tac+, tacrolimus]
- extracellular ROS (fold-increase vs control media) (human islets [1]): substantial increase in ROS
- T cell proliferation (CD8+ and CD4+) (mouse splenocytes): significantly decreased
- cumulative capacitance area under the curve (human islets [2]): 39.08
- IL-1β level in graft [3]: 17.81 pg/mL/g-tissue
- IL-6 level in graft [3]: 147.8 pg/mL/g-tissue
- KC (keratinocyte chemokine) level in graft [3]: 9.79 pg/mL/g-tissue
- TNF-α level in graft [3]: 1.63 pg/mL/g-tissue
- cleaved caspase-3, fold-change increase relative to kidneys of naïve mice ([4]; n=3): 3.14
- percentage of TUNEL positive cells ([4]; control 14.9%): 53.3%
- graft function / period to achieve euglycemia ([5]; AAGP in culture media 1 hour prior to transplant, tacrolimus 1 mg/kg/day by osmotic pump): unable to effectively secrete insulin and return animals to euglycemic state
- IPGTT AUC under tacrolimus treatment ([5]; initial IPGTT (7 days), tacrolimus 1 mg/kg/day): 101

Reference: patent US12521419B2, “Use of anti-aging glycopeptides to enhance pancreatic cell health, survival and improve transplant outcome” (Protokinetix Inc., priority 2014, dated 2026)
